Columns and labels:
[1] = Metabolic stability assay in liver microsomes; assay type: in vitro ADME, mouse
[2] = Metabolic stability assay in liver microsomes; assay type: in vitro ADME, human

SMILES: Cc1nnc2n1-c1ccc(Cl)cc1C(c1ccccc1)=NC2 [Alprazolam]
- MLM t1/2 ([1]; mouse liver microsomes 0.5 mg protein/mL, 2.0 μM compound, 37°C): 4.93 h
- microsomal CLint at 2 μM ([1]; mouse, liver microsomes): 5 µL/min/mg
- HLM t1/2 ([2]; human liver microsomes 0.5 mg protein/mL, 2.0 μM compound, 37°C): 13.9 h
- microsomal CLint at 2 μM ([2]; human, liver microsomes): 2 µL/min/mg

Source: paper PMC11087803 (Proceedings of the National Academy of Sciences of the …, 2024)
